Data from article PMC6576746, “Rational discovery of dual-indication multi-target PDE/Kinase inhibitor for precision anti-cancer therapy using structural systems pharmacology” (PLoS Computational Biology, 2019).

Legend:
Assay in all cases: biochemical
Design in all cases: DiscoverX KinomeScan competition binding assay across human kinases; per cent of control at 10 and 100 uM
[1] = target: T1, ABL1(F317L)-phosphorylated (Homo sapiens, UniProt P00519, F317L); settings: competition binding, % of control; read-out: Percent Control (100 uM Levosimendan)
T1 construct: phosphorylated
Method in brief: (§1)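 Binding is expressed as %control, normalised between positive and negative control signals. The compound (levosimendan) was tested at 10 μM and 100 μM in the DiscoverX KinomeScan competition binding format against human kinases.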

ACVR1 = ACVR1 (Homo sapiens, UniProt Q04771); settings: competition binding, % of control
Chain of ACVR1 (Q04771 whole entry): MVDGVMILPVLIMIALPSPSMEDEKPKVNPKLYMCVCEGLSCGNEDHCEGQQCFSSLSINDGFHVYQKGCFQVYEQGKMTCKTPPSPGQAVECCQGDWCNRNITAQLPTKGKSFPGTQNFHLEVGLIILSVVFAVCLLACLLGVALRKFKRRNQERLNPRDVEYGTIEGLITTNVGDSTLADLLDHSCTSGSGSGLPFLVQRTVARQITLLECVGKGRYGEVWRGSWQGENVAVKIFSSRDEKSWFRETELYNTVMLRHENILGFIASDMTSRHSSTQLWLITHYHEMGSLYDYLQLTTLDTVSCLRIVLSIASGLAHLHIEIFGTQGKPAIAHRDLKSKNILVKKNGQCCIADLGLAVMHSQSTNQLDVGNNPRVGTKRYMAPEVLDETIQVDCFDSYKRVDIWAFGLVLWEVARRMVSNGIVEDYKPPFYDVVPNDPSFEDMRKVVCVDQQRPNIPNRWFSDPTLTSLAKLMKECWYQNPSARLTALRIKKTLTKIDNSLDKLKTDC
Method in brief: as §1

ADCK3 = target: T2, ADCK3 (Homo sapiens, UniProt Q8NI60); settings: competition binding, % of control; read-out: Percent Control (100 uM Levosimendan)
T2 construct: gene COQ8A
T2 sequence (Q8NI60 whole entry): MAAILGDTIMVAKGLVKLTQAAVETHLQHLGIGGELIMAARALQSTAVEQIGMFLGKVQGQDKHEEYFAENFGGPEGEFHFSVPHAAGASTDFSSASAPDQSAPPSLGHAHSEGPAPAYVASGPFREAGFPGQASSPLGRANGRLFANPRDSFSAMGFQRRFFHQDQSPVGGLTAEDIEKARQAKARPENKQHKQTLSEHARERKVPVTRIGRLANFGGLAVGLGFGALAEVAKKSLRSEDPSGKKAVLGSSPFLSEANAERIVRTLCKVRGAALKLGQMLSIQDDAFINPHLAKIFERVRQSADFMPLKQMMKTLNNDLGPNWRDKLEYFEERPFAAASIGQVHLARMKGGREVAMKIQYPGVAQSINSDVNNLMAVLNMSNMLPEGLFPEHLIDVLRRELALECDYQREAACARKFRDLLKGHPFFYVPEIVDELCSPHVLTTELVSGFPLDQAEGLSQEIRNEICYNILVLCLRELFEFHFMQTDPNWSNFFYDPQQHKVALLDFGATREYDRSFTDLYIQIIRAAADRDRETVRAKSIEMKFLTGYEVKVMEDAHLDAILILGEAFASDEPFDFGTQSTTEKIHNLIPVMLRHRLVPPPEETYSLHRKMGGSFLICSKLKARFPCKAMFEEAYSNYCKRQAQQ
Method in brief: as §1

CDC2L5 = target: T3, CDC2L5 (Homo sapiens, UniProt Q14004); settings: competition binding, % of control; read-out: Percent Control (100 uM Levosimendan)
T3 construct: gene CDK13
Method in brief: as §1

CSNK1G3 = CSNK1G3 (Homo sapiens, UniProt Q9Y6M4); settings: competition binding, % of control
Chain of CSNK1G3 (Q9Y6M4 whole entry): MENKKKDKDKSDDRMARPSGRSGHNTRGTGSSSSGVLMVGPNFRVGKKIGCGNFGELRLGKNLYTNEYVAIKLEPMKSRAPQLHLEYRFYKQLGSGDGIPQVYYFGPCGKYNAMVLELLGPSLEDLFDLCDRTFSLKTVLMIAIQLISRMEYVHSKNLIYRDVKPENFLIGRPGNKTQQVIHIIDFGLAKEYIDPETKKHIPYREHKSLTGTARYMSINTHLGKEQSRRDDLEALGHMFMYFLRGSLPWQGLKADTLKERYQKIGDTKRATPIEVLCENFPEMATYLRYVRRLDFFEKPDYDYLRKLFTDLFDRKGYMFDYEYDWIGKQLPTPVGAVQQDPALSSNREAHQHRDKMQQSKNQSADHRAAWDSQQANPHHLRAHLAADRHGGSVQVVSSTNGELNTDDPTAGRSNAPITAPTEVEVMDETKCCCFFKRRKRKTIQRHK
Method in brief: as §1

ERK3 = target: T4, ERK3 (Homo sapiens, UniProt Q16659); settings: competition binding, % of control; read-out: Percent Control (100 uM Levosimendan)
T4 construct: gene MAPK6
Method in brief: as §1

MAP3K4 = MAP3K4 (Homo sapiens, UniProt Q9Y6R4); settings: competition binding, % of control; read-out: Percent Control (100 uM Levosimendan)
Method in brief: as §1

NEK5 = NEK5 (Homo sapiens, UniProt Q6P3R8); settings: competition binding, % of control; read-out: Percent Control (100 uM Levosimendan)
Method in brief: as §1

NEK9 = NEK9 (Homo sapiens, UniProt Q8TD19); settings: competition binding, % of control; read-out: Percent Control (100 uM Levosimendan)
Method in brief: as §1

PFTK1 = target: T5, PFTK1 (Homo sapiens, UniProt O94921); settings: competition binding, % of control; read-out: Percent Control (100 uM Levosimendan)
T5 construct: gene CDK14
Method in brief: as §1

PIK3C2B = PIK3C2B (Homo sapiens, UniProt O00750); settings: competition binding, % of control; read-out: Percent Control (100 uM Levosimendan)
Method in brief: as §1

PIK3CG = PIK3CG (Homo sapiens, UniProt P48736); settings: competition binding, % of control; read-out: Percent Control (100 uM Levosimendan)
Chain of PIK3CG (P48736 whole entry): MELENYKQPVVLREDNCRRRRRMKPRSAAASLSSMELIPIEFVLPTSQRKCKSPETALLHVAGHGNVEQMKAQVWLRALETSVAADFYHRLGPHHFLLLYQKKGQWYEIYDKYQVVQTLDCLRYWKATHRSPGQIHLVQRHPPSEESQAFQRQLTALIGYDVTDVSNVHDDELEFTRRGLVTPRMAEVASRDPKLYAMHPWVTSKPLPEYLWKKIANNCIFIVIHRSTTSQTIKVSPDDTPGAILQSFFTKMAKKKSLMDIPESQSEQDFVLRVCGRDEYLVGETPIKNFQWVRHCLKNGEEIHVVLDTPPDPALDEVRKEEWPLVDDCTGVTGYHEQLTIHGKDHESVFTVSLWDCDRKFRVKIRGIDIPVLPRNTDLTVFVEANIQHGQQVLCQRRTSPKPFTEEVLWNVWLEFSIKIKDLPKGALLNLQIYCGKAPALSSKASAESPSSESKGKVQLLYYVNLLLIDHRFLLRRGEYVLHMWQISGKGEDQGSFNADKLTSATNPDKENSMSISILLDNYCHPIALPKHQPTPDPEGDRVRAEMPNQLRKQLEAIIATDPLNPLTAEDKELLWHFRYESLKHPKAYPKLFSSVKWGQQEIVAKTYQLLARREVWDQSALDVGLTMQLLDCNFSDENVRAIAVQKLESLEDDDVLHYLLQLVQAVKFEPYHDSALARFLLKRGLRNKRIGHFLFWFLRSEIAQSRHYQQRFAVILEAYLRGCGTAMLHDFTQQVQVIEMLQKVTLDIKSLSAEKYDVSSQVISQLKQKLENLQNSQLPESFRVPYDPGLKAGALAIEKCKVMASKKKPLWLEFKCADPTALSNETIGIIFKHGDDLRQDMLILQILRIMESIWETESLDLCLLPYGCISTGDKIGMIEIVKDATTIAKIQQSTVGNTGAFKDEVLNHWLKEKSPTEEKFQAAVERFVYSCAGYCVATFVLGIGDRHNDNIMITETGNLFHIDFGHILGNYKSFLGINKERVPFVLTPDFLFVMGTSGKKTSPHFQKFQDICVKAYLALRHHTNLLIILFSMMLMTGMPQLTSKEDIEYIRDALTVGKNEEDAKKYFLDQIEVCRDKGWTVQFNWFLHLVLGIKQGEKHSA
Method in brief: as §1

ROCK1 = ROCK1 (Homo sapiens, UniProt Q13464); settings: competition binding, % of control; read-out: Percent Control (100 uM Levosimendan)
Method in brief: as §1

[2] = target: T6, RSK2(Kin.Dom.2-C-terminal) (Homo sapiens, UniProt P51812); settings: competition binding, % of control; read-out: Percent Control (100 uM Levosimendan)
T6 construct: gene RPS6KA3; Kin.Dom.2-C-terminal
T6 sequence (P51812 whole entry): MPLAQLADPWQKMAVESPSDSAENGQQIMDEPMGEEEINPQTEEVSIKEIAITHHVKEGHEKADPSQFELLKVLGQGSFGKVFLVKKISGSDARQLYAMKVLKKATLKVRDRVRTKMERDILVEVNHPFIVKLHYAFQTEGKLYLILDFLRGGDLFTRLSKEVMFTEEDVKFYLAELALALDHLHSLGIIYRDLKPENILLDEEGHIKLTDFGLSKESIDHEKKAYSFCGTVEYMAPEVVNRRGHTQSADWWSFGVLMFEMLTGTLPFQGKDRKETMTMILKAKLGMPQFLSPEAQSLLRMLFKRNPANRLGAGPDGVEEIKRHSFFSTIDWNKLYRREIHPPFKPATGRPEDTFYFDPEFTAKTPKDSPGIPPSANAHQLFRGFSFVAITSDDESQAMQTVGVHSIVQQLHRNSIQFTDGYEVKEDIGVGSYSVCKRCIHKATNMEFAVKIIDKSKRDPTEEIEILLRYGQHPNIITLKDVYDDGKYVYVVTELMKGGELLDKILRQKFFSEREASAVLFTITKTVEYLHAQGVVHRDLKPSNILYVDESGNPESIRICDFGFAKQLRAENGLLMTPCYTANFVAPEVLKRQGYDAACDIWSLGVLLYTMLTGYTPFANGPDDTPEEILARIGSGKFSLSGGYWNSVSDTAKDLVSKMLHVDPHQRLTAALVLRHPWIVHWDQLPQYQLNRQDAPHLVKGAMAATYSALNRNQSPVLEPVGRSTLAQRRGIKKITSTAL
Method in brief: as §1

[3] = target: T7, RSK4(Kin.Dom.2-C-terminal) (Homo sapiens, UniProt Q9UK32); settings: competition binding, % of control
T7 construct: gene RPS6KA6; Kin.Dom.2-C-terminal
T7 sequence (Q9UK32 whole entry): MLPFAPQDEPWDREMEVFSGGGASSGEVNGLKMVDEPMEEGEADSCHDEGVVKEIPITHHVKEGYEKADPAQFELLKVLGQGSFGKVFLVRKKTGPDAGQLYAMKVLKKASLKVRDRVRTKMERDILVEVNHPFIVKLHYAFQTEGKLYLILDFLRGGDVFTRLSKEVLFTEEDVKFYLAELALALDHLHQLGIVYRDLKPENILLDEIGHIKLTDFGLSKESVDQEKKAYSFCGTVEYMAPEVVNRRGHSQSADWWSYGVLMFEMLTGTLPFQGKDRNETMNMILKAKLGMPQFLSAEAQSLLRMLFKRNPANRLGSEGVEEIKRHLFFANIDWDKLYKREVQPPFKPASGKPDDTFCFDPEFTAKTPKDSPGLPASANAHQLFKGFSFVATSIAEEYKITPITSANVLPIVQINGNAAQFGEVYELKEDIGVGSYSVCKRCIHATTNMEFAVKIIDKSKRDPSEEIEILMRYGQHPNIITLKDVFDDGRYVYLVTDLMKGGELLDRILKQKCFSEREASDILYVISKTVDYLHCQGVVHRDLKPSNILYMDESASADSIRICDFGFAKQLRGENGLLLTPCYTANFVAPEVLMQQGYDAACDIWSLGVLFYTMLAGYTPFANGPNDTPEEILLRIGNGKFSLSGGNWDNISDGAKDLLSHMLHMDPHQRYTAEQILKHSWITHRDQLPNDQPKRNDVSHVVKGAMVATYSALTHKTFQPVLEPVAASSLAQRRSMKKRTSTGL
Method in brief: as §1

SRPK1 = SRPK1 (Homo sapiens, UniProt Q96SB4); settings: competition binding, % of control
Chain of SRPK1 (Q96SB4 whole entry): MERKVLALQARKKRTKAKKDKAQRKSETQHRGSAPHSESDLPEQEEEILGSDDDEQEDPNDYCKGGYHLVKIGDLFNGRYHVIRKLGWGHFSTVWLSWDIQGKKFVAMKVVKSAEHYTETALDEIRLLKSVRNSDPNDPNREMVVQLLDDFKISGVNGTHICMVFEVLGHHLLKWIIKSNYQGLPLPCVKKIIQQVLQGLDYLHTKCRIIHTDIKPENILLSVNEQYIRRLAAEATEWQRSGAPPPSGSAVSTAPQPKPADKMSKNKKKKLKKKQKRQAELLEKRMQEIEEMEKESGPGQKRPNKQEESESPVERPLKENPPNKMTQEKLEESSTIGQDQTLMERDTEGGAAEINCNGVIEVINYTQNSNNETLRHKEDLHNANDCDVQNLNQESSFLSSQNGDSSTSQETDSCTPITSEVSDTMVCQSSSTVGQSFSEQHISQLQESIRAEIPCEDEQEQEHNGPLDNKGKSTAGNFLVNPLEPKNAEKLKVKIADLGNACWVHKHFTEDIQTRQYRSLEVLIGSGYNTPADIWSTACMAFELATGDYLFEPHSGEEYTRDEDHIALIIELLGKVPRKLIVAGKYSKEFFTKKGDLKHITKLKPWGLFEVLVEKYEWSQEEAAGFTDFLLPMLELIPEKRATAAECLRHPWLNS
Method in brief: as §1

SRPK3 = SRPK3 (Homo sapiens, UniProt Q9UPE1); settings: competition binding, % of control; read-out: Percent Control (100 uM Levosimendan)
Method in brief: as §1

ZAP70 = ZAP70 (Homo sapiens, UniProt P43403); settings: competition binding, % of control; read-out: Percent Control (100 uM Levosimendan)
Method in brief: as §1

[4] = read-out: Percent Control (10 uM Levosimendan)
[5] = read-out: Percent Control (100 uM Levosimendan)

remaining binding at 100 µM [1]: 59%
remaining binding at 10 µM (ACVR1; [4]): 55%
remaining binding at 100 µM (ACVR1; [5]): 6.5%
remaining binding at 100 µM (ADCK3): 57%
remaining binding at 100 µM (CDC2L5): 100%
remaining binding at 10 µM (CSNK1G3; [4]): 83%
remaining binding at 100 µM (CSNK1G3; [5]): 36%
remaining binding at 100 µM (ERK3): 79%
remaining binding at 100 µM (MAP3K4): 58%
remaining binding at 100 µM (NEK5): 86%
remaining binding at 100 µM (PFTK1): 67%
remaining binding at 100 µM (PIK3C2B): 90%
remaining binding at 100 µM (PIK3CG): 80%
remaining binding at 100 µM (ROCK1): 90%
remaining binding at 100 µM [2]: 66%
remaining binding at 10 µM [3, 4]: 82%
remaining binding at 100 µM [3, 5]: 31%
remaining binding at 10 µM (SRPK1; [4]): 36%
remaining binding at 100 µM (SRPK1; [5]): 40%
remaining binding at 100 µM (SRPK3): 63%
remaining binding at 100 µM (ZAP70): 74%
SMILES: C[C@@H]1CC(=O)NN=C1c1ccc(NN=C(C#N)C#N)cc1 [levosimendan]
remaining binding at 100 µM (NEK9): 56%
